In ChEMBL document CHEMBL1129402, “Structure-based design of HIV protease inhibitors: 5,6-dihydro-4-hydroxy-2-pyrones as effective, nonpeptidic inhibitors” (J Med Chem, 1996):

Target: Human immunodeficiency virus type 1 protease (Human immunodeficiency virus 1, UniProt Q72874)
Assay: HIV Protease inhibitory activity

Row | Ki [nM] | IC50 [nM] | SMILES
1 | 95 | – | CCCC1(c2ccccc2)CC(=O)C(C(CC)c2ccccc2)=C(O)O1 (centres undefined)
2 | 160 | – | CCC(C1=C(O)OC(CC)(c2ccccc2)CC1=O)c1ccccc1 (centres undefined)
3 | – | 3000 | CCC(C1=C(O)OC2(CCCCCCC2)CC1=O)c1ccccc1 (centres undefined)
4 | 64 | – | CCCC1(CCc2ccccc2)CC(=O)C(C(c2ccccc2)C2CC2)=C(O)O1 (centres undefined)
5 | – | > 1000 | CCC(C1=C(O)OC2(CCC(=O)CC2)CC1=O)c1ccccc1 (centres undefined)
6 | – | 75000 | CCC(C1=C(O)OC(CC(C)C)(CC(C)C)CC1=O)c1ccccc1 (centres undefined)
7 | – | > 10000 | CCC(C1=C(O)OC(Cc2ccccc2)(Cc2ccccc2)CC1=O)c1ccccc1 (centres undefined)
8 | – | > 10000 | CCC(C1=C(O)OC(Cc2ccccc2)(c2ccccc2)CC1=O)c1ccccc1 (centres undefined)
9 | 610 | – | CCC(C1=C(O)OC(c2ccccc2)(C2CCCCC2)CC1=O)c1cccc(O)c1 (centres undefined)
10 | 35 | – | CCCC1(CCc2ccccc2)CC(=O)C(C(CC)c2ccccc2)=C(O)O1 (centres undefined)
11 | 16 | – | C=CC(C1=C(O)OC(CCC)(CCc2ccccc2)CC1=O)c1ccccc1 (centres undefined)
12 | – | 780 | CCC(C1=C(O)OC2(CCCCC2)CC1=O)c1ccccc1 (centres undefined)
13 | 39 | – | CCCC1(CCC)CC(=O)C(C(c2ccccc2)C2CCCC2)=C(O)O1 (centres undefined)
14 | 50 | – | CCCC1(CCc2ccccc2)CC(=O)C(C(/C=C/c2ccccc2)c2ccccc2)=C(O)O1 (centres undefined)
15 | 22 | – | CCCC1(CCC)CC(=O)C(C(CC)c2ccccc2)=C(O)O1 (centres undefined)
16 | 59 | – | CCCC1(CCc2ccccc2)CC(=O)C(C(c2ccccc2)C2CCCC2)=C(O)O1 (centres undefined)
17 | 33 | – | CCCC1(CCc2ccccc2)CC(=O)C(C(CCc2ccccc2)c2ccccc2)=C(O)O1 (centres undefined)
18 | – | > 1000 | C=CC(C1=C(O)OC2(CCCCC2Cc2ccccc2)CC1=O)c1ccccc1 (centres undefined)
19 | – | > 10000 | C=CC(C1=C(O)OC2(CCOCC2)CC1=O)c1ccccc1 (centres undefined)
20 | – | > 1000 | C=CC(C1=C(O)OC2(CCCCCC2)CC1=O)c1ccccc1 (centres undefined)
21 | – | 3000 | CCCCC1(Cc2ccccc2)CC(=O)C(C(CC)c2ccccc2)=C(O)O1 (centres undefined)
22 | – | 3000 | C=CC(C1=C(O)OC2(CCCC2)CC1=O)c1ccccc1 (centres undefined)
23 | – | > 1000 | CCCC1(CCC)CC(=O)C(C(c2ccccc2)C(C)(C)C)=C(O)O1 (centres undefined)
24 | 15 | – | CCCC1(CCC)CC(O)=C(C(c2ccccc2)C2CC2)C(=O)O1 (centres undefined)
